# Measurements as given in ChEMBL document CHEMBL1156737, “Terpenoids. III: Synthesis and biological evaluation of 23-hydroxybetulinic acid derivatives as novel inhibitors of glycogen phosphorylase” (Bioorg Med Chem Lett, 2009).
# Target: T1, Glycogen phosphorylase, muscle form (Oryctolagus cuniculus, UniProt P00489)
# T1 sequence (P00489 whole entry): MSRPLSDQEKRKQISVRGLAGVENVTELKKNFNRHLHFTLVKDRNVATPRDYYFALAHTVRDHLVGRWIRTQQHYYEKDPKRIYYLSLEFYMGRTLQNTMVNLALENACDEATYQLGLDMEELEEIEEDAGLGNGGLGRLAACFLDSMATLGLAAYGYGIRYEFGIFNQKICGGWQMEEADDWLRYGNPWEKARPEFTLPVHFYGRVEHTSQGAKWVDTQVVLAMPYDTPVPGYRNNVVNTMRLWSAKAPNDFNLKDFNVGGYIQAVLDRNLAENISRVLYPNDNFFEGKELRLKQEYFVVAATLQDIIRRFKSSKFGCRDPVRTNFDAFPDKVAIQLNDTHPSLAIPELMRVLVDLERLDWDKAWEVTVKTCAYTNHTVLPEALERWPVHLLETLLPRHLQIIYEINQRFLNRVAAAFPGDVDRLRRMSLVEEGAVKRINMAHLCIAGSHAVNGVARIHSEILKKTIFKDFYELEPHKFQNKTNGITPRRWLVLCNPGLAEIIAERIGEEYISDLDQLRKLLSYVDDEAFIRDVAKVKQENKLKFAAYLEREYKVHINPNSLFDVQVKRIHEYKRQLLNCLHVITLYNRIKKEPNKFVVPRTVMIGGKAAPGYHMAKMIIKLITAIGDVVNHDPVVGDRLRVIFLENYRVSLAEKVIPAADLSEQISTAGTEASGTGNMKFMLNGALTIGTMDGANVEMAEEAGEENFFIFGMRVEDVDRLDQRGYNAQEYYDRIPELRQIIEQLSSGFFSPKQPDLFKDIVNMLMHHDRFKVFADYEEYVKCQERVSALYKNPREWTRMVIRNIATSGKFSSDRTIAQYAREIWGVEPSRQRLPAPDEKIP
# Assay: Inhibition of rabbit muscle glycogen phosphorylase A assessed as release of phosphate from glucose-1-phosphate after 25 mins
# Conditions: not given; call rule not given here
row,Compound,IC50
1,C=C(C)[C@@H]1CC[C@]2(C(=O)NCCCC)CC[C@]3(C)[C@H](CC[C@@H]4[C@@]5(C)CC[C@H](OC(=O)C(=O)NCCCC)[C@@](C)(COC(=O)C(=O)NCCCC)[C@@H]5CC[C@]43C)[C@@H]12,Not Active

# Same assay, conditions: read-out: IC50
row,Compound,IC50 [µM]
1,C=C(C)[C@@H]1CC[C@]2(C(=O)NCCCCCCNCC)CC[C@]3(C)[C@H](CC[C@@H]4[C@@]5(C)CC[C@H](OC(C)=O)[C@@](C)(COC(C)=O)[C@@H]5CC[C@]43C)[C@@H]12,29.5
2,C=C(C)[C@@H]1CC[C@]2(COC(=O)C(=O)OC)CC[C@]3(C)[C@H](CC[C@@H]4[C@@]5(C)CC[C@H](OC(=O)C(=O)OC)[C@@](C)(COC(=O)C(=O)OC)[C@@H]5CC[C@]43C)[C@@H]12,30.1
3,C=C(C)[C@@H]1CC[C@]2(COC(=O)C(=O)NC(C)C)CC[C@]3(C)[C@H](CC[C@@H]4[C@@]5(C)CC[C@H](OC(=O)C(=O)NC(C)C)[C@@](C)(COC(=O)C(=O)NC(C)C)[C@@H]5CC[C@]43C)[C@@H]12,35.9
4,C=C(C)[C@@H]1CC[C@]2(C(=O)NCCCCCCN)CC[C@]3(C)[C@H](CC[C@@H]4[C@@]5(C)CC[C@H](O)[C@@](C)(CO)[C@@H]5CC[C@]43C)[C@@H]12,10.2
5,C=C(C)[C@@H]1CC[C@]2(C(=O)OCC#CCOC(=O)CCC(=O)O)CC[C@]3(C)[C@H](CC[C@@H]4[C@@]5(C)CC[C@H](OC(C)=O)[C@@](C)(COC(C)=O)[C@@H]5CC[C@]43C)[C@@H]12,94.5
6,C=C(C)[C@@H]1CC[C@]2(C(=O)OCCCCCC)CC[C@]3(C)[C@H](CC[C@@H]4[C@@]5(C)CC[C@H](O)[C@@](C)(CO)[C@@H]5CC[C@]43C)[C@@H]12,69.1
7,C=C(C)[C@@H]1CC[C@]2(C(=O)NCC(=O)OC)CC[C@]3(C)[C@H](CC[C@@H]4[C@@]5(C)CC[C@H](OC(C)=O)[C@@](C)(COC(C)=O)[C@@H]5CC[C@]43C)[C@@H]12,103
8,C=C(C)[C@@H]1CC[C@]2(C(=O)NCCCCCCN)CC[C@]3(C)[C@H](CC[C@@H]4[C@@]5(C)CC[C@H](OC(C)=O)[C@@](C)(COC(C)=O)[C@@H]5CC[C@]43C)[C@@H]12,3.5
9,C=C(C)[C@@H]1CC[C@]2(C(=O)NCC(=O)N[C@@H](Cc3ccccc3)C(=O)OC)CC[C@]3(C)[C@H](CC[C@@H]4[C@@]5(C)CC[C@H](O)[C@@](C)(CO)[C@@H]5CC[C@]43C)[C@@H]12,40.6
10,C=C(C)[C@@H]1CC[C@]2(C(=O)NCCCCCCNC(=O)/C=C/C(=O)O)CC[C@]3(C)[C@H](CC[C@@H]4[C@@]5(C)CC[C@H](OC(C)=O)[C@@](C)(COC(C)=O)[C@@H]5CC[C@]43C)[C@@H]12,54.8
11,C=C(C)[C@@H]1CC[C@]2(C(=O)NCCCN(CC)CC)CC[C@]3(C)[C@H](CC[C@@H]4[C@@]5(C)CC[C@H](OC(C)=O)[C@@](C)(COC(C)=O)[C@@H]5CC[C@]43C)[C@@H]12,72.8
12,C=C(C)[C@@H]1CC[C@]2(C(=O)NCCCCCCNC(=O)CCC(=O)O)CC[C@]3(C)[C@H](CC[C@@H]4[C@@]5(C)CC[C@H](OC(C)=O)[C@@](C)(COC(C)=O)[C@@H]5CC[C@]43C)[C@@H]12,194
13,C=C(C)[C@@H]1CC[C@]2(C(=O)OCCBr)CC[C@]3(C)[C@H](CC[C@@H]4[C@@]5(C)CC[C@H](O)[C@@](C)(CO)[C@@H]5CC[C@]43C)[C@@H]12,289
14,C=C(C)[C@@H]1CC[C@]2(C(=O)OCC#CCO)CC[C@]3(C)[C@H](CC[C@@H]4[C@@]5(C)CC[C@H](O)[C@@](C)(CO)[C@@H]5CC[C@]43C)[C@@H]12,194
15,C=C(C)[C@@H]1CC[C@]2(C(=O)O)CC[C@]3(C)[C@H](CC[C@@H]4[C@@]5(C)CC[C@H](O)[C@@](C)(CO)[C@@H]5CC[C@]43C)[C@@H]12,103
16,C=C(C)[C@@H]1CC[C@]2(C(=O)NCCCN)CC[C@]3(C)[C@H](CC[C@@H]4[C@@]5(C)CC[C@H](OC(C)=O)[C@@](C)(COC(C)=O)[C@@H]5CC[C@]43C)[C@@H]12,15.2
17,C=C(C)[C@@H]1CC[C@]2(COC(=O)C(=O)NCCCC)CC[C@]3(C)[C@H](CC[C@@H]4[C@@]5(C)CC[C@H](OC(=O)C(=O)NCCCC)[C@@](C)(COC(=O)C(=O)NCCCC)[C@@H]5CC[C@]43C)[C@@H]12,34.7
18,C=C(C)[C@@H]1CC[C@]2(C(=O)NCC(=O)N[C@@H](Cc3ccccc3)C(=O)O)CC[C@]3(C)[C@H](CC[C@@H]4[C@@]5(C)CC[C@H](O)[C@@](C)(CO)[C@@H]5CC[C@]43C)[C@@H]12,129
19,C=C(C)[C@@H]1CC[C@]2(C(=O)OCCCCCCOC(=O)c3ccccc3C(=O)O)CC[C@]3(C)[C@H](CC[C@@H]4[C@@]5(C)CC[C@H](OC(C)=O)[C@@](C)(COC(C)=O)[C@@H]5CC[C@]43C)[C@@H]12,69.2
20,C=C(C)[C@@H]1CC[C@]2(C(=O)NCC(=O)O)CC[C@]3(C)[C@H](CC[C@@H]4[C@@]5(C)CC[C@H](O)[C@@](C)(CO)[C@@H]5CC[C@]43C)[C@@H]12,67.7
21,C=C(C)[C@@H]1CC[C@]2(C(=O)OCCN(CCCCCCNC(C)=O)C(C)=O)CC[C@]3(C)[C@H](CC[C@@H]4[C@@]5(C)CC[C@H](OC(C)=O)[C@@](C)(COC(C)=O)[C@@H]5CC[C@]43C)[C@@H]12,96.6
22,C=C(C)[C@@H]1CC[C@]2(C(=O)NCCCCCCNC(C)=O)CC[C@]3(C)[C@H](CC[C@@H]4[C@@]5(C)CC[C@H](OC(C)=O)[C@@](C)(COC(C)=O)[C@@H]5CC[C@]43C)[C@@H]12,34.1
23,C=C(C)[C@@H]1CC[C@]2(C(=O)NCCCCCCN(CC)CC)CC[C@]3(C)[C@H](CC[C@@H]4[C@@]5(C)CC[C@H](OC(C)=O)[C@@](C)(COC(C)=O)[C@@H]5CC[C@]43C)[C@@H]12,55.6
24,C=C(C)[C@@H]1CC[C@]2(C(=O)NCCCN)CC[C@]3(C)[C@H](CC[C@@H]4[C@@]5(C)CC[C@H](O)[C@@](C)(CO)[C@@H]5CC[C@]43C)[C@@H]12,23.8
25,C=C(C)[C@@H]1CC[C@]2(C(=O)OC3CCCCC3)CC[C@]3(C)[C@H](CC[C@@H]4[C@@]5(C)CC[C@H](O)[C@@](C)(CO)[C@@H]5CC[C@]43C)[C@@H]12,50.4
26,C=C(C)[C@@H]1CC[C@]2(COC(C)=O)CC[C@]3(C)[C@H](CC[C@@H]4[C@@]5(C)CC[C@H](OC(C)=O)[C@@](C)(COC(C)=O)[C@@H]5CC[C@]43C)[C@@H]12,143
27,C=C(C)[C@@H]1CC[C@]2(COC(=O)C(=O)OCC#CCO)CC[C@]3(C)[C@@H](CC[C@@H]4[C@@]5(C)CC[C@H](OC(=O)C(=O)OCC#CCO)[C@@](C)(COC(=O)C(=O)OCC#CCO)[C@@H]5CC[C@]43C)C12 (some centres undefined),19.1
28,C=C(C)[C@@H]1CC[C@]2(COC(=O)CCC(=O)O)CC[C@]3(C)[C@H](CC[C@@H]4[C@@]5(C)CC[C@H](OC(=O)CCC(=O)O)[C@@](C)(COC(=O)CCC(=O)O)[C@@H]5CC[C@]43C)[C@@H]12,97.8
